According to PubChem BioAssay (NCI):
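At the GI50, growth is halved. TGI: total growth inhibition.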

Assays:
Assay in all cases: NCI anticancer screen, dose series, 384-well format
SN12C renal = test system: SN12C renal
RXF 393 renal = test system: RXF 393 renal
NCI/ADR-RES ovarian = test system: NCI/ADR-RES ovarian
EKVX NSCLC = test system: EKVX NSCLC
ACHN renal = test system: ACHN renal
OVCAR-5 ovarian = test system: OVCAR-5 ovarian
SK-MEL-5 melanoma = test system: SK-MEL-5 melanoma
MDA-MB-231 breast = test system: MDA-MB-231 breast
UACC-257 melanoma = test system: UACC-257 melanoma
U251 glioblastoma = test system: U251 glioblastoma
SF-539 CNS = test system: SF-539 CNS
786-0 renal = test system: 786-0 renal
HL-60(TB) leukemia = test system: HL-60(TB) leukemia
MOLT-4 leukemia = test system: MOLT-4 leukemia
MCF7 breast = test system: MCF7 breast
HT29 colon = test system: HT29 colon
A549 NSCLC = test system: A549 NSCLC
MDA-MB-468 breast = test system: MDA-MB-468 breast
NCI-H522 lung = test system: NCI-H522 lung
NCI-H460 NSCLC = test system: NCI-H460 NSCLC
BT-549 breast = test system: BT-549 breast
OVCAR-4 ovarian = test system: OVCAR-4 ovarian
SNB-75 CNS = test system: SNB-75 CNS
KM12 colon = test system: KM12 colon

## O=C1CC[C@H](N2Cc3c(OCc4ccc(CN5CCOCC5)cc4)cccc3C2=O)C(=O)N1
SN12C renal
  TGI: > 100 µM
RXF 393 renal
  GI50: > 100 µM
  TGI: > 100 µM
NCI/ADR-RES ovarian
  GI50: > 100 µM
  TGI: > 100 µM
EKVX NSCLC
  GI50: > 100 µM
  TGI: > 100 µM
ACHN renal
  GI50: > 100 µM
  TGI: > 100 µM
OVCAR-5 ovarian
  GI50: > 100 µM
  TGI: > 100 µM
SK-MEL-5 melanoma
  GI50: > 100 µM
  TGI: > 100 µM
MDA-MB-231 breast
  GI50: > 100 µM
  TGI: > 100 µM
UACC-257 melanoma
  GI50: > 100 µM
  TGI: > 100 µM
U251 glioblastoma
  GI50: > 100 µM
  TGI: > 100 µM
SF-539 CNS
  GI50: > 100 µM
  TGI: > 100 µM
786-0 renal
  GI50: > 100 µM
  TGI: > 100 µM
HL-60(TB) leukemia
  GI50: 43.9 µM
  TGI: > 100 µM
MOLT-4 leukemia
  GI50: > 100 µM
  TGI: > 100 µM
MCF7 breast
  GI50: > 100 µM
  TGI: > 100 µM
HT29 colon
  GI50: > 100 µM
  TGI: > 100 µM
A549 NSCLC
  GI50: > 100 µM
  TGI: > 100 µM
MDA-MB-468 breast
  GI50: > 100 µM
  TGI: > 100 µM
NCI-H522 lung
  GI50: > 100 µM
  TGI: > 100 µM
NCI-H460 NSCLC
  GI50: > 100 µM
  TGI: > 100 µM
BT-549 breast
  GI50: > 100 µM
  TGI: > 100 µM
OVCAR-4 ovarian
  GI50: > 100 µM
  TGI: > 100 µM
SNB-75 CNS
  GI50: > 100 µM
  TGI: > 100 µM
KM12 colon
  GI50: > 100 µM
  TGI: > 100 µM
